Results from paper PMC11747885, “Potent inhibitors of the human RNA ligase Rlig1 highlights its role in RNA integrity maintenance under oxidative cellular stress” (Chemical Science, 2025).
Read-outs that look alike come from different tables or passages of the source. No end group written: not given here.

Assays:
Rlig1-AMP [1] = biological target: T1, Rlig1-AMP (Homo sapiens, UniProt Q8N999); experiment: Radioactive RNA ligation assay (hit validation, 10 µM test and IC50 determination); format: biochemical; settings: for inhibition in radioactive ligation assay (hit validation): 10 µM compound, 37 °C, 20 min
T1 construct: made in house; host or cells: E. coli BL21 (DE3), pET15b-Rlig1

Rlig1-AMP [2] = biological target: T1, Rlig1-AMP; experiment: FRET-based high-throughput screening of inhibitors for Rlig1-AMP; format: biochemical
[3] = sheet HTS hits, MedChemExpress library
[4] = sheet HTS hits, difference of raw data w/o and w enzyme
[5] = HTS hits, MedChemExpress library
[6] = HTS hits, difference of raw data without and with enzyme
[7] = HTS hits, difference of raw data w/o and w enzyme
[8] = HTS hits, normalised value of 1-D Distance

T1 sequence (Q8N999 whole entry): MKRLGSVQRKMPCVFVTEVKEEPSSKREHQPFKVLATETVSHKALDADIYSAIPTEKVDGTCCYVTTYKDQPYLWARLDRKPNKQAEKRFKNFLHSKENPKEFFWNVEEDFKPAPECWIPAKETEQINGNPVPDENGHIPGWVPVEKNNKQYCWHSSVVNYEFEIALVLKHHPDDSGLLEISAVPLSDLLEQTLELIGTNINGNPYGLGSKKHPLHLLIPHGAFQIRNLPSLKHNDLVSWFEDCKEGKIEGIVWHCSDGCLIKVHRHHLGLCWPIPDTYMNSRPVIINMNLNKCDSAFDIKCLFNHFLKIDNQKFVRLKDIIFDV

Compound	Raw data [w Enyzm] (Rlig1-AMP [2]; HTS hits, with enzyme)	Raw data [w/o Enzym] (Rlig1-AMP [2]; HTS hits, without enzyme)	1-D Distance (Rlig1-AMP [2]; [7])	1-D Distance.npi (Rlig1-AMP [2]; [8])	other results
CN(C)C/C=C/C(=O)Nc1ccc(C(=O)Nc2cccc(Nc3ncc(Cl)c(-c4c[nH]c5ccccc45)n3)c2)cc1.Cl [Compound 2, THZ1 (Hydrochloride), reference compound]					inhibition in radioactive ligation assay (hit validation) (Rlig1-AMP [1]): above 70%
Cc1cc(-c2cc(O)ccc2Cl)cc2nnc(Nc3ccc(OCCN4CCCC4)cc3)nc12.Cl [Compound 6, reference compound]					inhibition in radioactive ligation assay (hit validation) (Rlig1-AMP [1]): above 70%
Cn1nc(-c2ccc(C(F)(F)F)cc2)nc2c(=O)n(C)c(=O)nc1-2 [Compound 11, reference compound]					IC50 (in words) (Rlig1-AMP [1]; concentration-dependent radioactive ligation assay): nanomolar range
CN(C)Cc1ccc(-c2cnn3c(-c4cccc(NC(=O)c5cccc(C(F)(F)F)c5)c4)ccnc23)cc1 [Compound 17, reference compound]					inhibition in radioactive ligation assay (hit validation) (Rlig1-AMP [1]): above 70%
Cc1cc(Nc2ccc(NC(=O)c3ccc(Nc4cccc5ccccc45)cc3)cc2)nc(N)n1 [Compound 44]					inhibition of Rlig1-AMP ligation (urea-PAGE) (Rlig1-AMP [1]; 10 μM compound, 500 nM Rlig1-AMP, 20 min 37 °C): inactive
C/C1=C2/[N-][C@H]([C@H](CC(N)=O)[C@@]2(C)CCC(=O)NC[C@H](C)OP(=O)([O-])O[C@H]2[C@@H](O)[C@@H](n3cnc4cc(C)c(C)cc43)O[C@@H]2CO)[C@]2(C)N=C(/C(C)=C3N=C(/C=C4N=C1[C@@H](CCC(N)=O)C\4(C)C)[C@@H](CCC(N)=O)[C@]\3(C)CC(N)=O)[C@@H](CCC(N)=O)[C@]2(C)CC(N)=O.[CH3-].[Co+3] [Methylcobalamin]					1-D Distance.npi (Rlig1-AMP [2]; [3]): 89.4559; 1-D Distance (Rlig1-AMP [2]; [4]): 977; Raw data [w Enyzm] (Rlig1-AMP [2]; sheet HTS hits, with enzyme): 4140; Raw data [w/o Enzym] (Rlig1-AMP [2]; sheet HTS hits, without enzyme): 5117
CN(C)c1ccc2nc3ccc(=[N+](C)C)cc-3sc2c1.O.O.O.[Cl-] [Methylene blue (trihydrate)]	6070				1-D Distance.npi (Rlig1-AMP [2]; [5]): 83.8926; 1-D Distance (Rlig1-AMP [2]; [6]): 1051
O=C(NCCCCCCCCCC[P+](c1ccccc1)(c1ccccc1)c1ccccc1)c1nn(Cc2ccc(Cl)cc2Cl)c2ccccc12.[Br-] [Mito-LND]	5993	4259			1-D Distance.npi (Rlig1-AMP [2]; [5]): 74.0964; 1-D Distance (Rlig1-AMP [2]; [6]): 1734
Cl.NC(CO)(CO)CCc1ccc(Sc2cccc(OCc3ccccc3)c2)cc1Cl [Mocravimod (hydrochloride)]	8286	8462			1-D Distance.npi (Rlig1-AMP [2]; [5]): 104.362; 1-D Distance (Rlig1-AMP [2]; [6]): 176
COc1cc(/C=C/C(=O)NCC(O)c2ccc(O)cc2)ccc1O (centres unmarked) [N-Feruloyloctopamine]					1-D Distance.npi (Rlig1-AMP [2]; [3]): 70.0499; 1-D Distance (Rlig1-AMP [2]; [4]): 1918; Raw data [w Enyzm] (Rlig1-AMP [2]; sheet HTS hits, with enzyme): 9094; Raw data [w/o Enzym] (Rlig1-AMP [2]; sheet HTS hits, without enzyme): 11012
NC[C@@H]1O[C@H](O[C@H]2[C@@H](O)[C@H](O[C@@H]3[C@@H](O)[C@H](N)C[C@H](N)[C@H]3O[C@H]3O[C@H](CN)[C@@H](O)[C@H](O)[C@H]3N)O[C@@H]2CO)[C@H](N)[C@@H](O)[C@@H]1O.O=S(=O)(O)O [Neomycin (sulfate)]	7973	8455	482	97.3447	
CCCCCOc1ccccc1/C(=C\SC)n1ccnc1.Cl [Neticonazole (hydrochloride)]	9255	10970			1-D Distance.npi (Rlig1-AMP [2]; [5]): 74.1423; 1-D Distance (Rlig1-AMP [2]; [6]): 1715
Cl.Cl.Cn1cc(NC(=O)c2cc(NC(=O)CN=C(N)N)cn2C)cc1C(=O)NCCC(=N)N [Netropsin (dihydrochloride)]	8749		1774	75.4127	
CC1CS(=O)(=O)CCN1/N=C/c1ccc([N+](=O)[O-])o1 (centres unmarked) [Nifurtimox]	7893		1863		
CCCCCCCCN=c1ccn(CCCCCCCCCCn2ccc(=NCCCCCCCC)cc2)cc1.Cl.Cl [Octenidine (dihydrochloride)]	8818	7318	1500	76.2265	
Cl[TeH]1(Cl)(Cl)OCCO1 [Ossirene]	4805	6468	1663		

Compound	Raw data [w Enyzm] (Rlig1-AMP [2]; HTS hits, with enzyme)	Raw data [w/o Enzym] (Rlig1-AMP [2]; HTS hits, without enzyme)	1-D Distance (Rlig1-AMP [2]; [7])	1-D Distance.npi (Rlig1-AMP [2]; [8])	other results
NC[C@@H]1O[C@H](O[C@H]2[C@@H](O)[C@H](O[C@@H]3[C@@H](O)[C@H](N)C[C@H](N)[C@H]3O[C@H]3O[C@H](CO)[C@@H](O)[C@H](O)[C@H]3N)O[C@@H]2CO)[C@H](N)[C@@H](O)[C@@H]1O.O=S(=O)(O)O [Paromomycin (sulfate)]	8444	9664	1220	82.0351	
COS(=O)(=O)[O-].C[n+]1c2ccccc2nc2ccccc21 [Phenazine (methylsulfate)]	2478	3897			1-D Distance.npi (Rlig1-AMP [2]; [5]): 78.9166; 1-D Distance (Rlig1-AMP [2]; [6]): 1419
c1cnc(N2CCN(Cc3ccc4c(c3)OCO4)CC2)nc1 [Piribedil]	9369	11071			1-D Distance (Rlig1-AMP [2]; [6]): 1702
NCCNc1ccc(NCCN)c2c1C(=O)c1ccncc1C2=O.O=C(O)/C=C\C(=O)O.O=C(O)/C=C\C(=O)O [Pixantrone (dimaleate)]	4061	5199			1-D Distance.npi (Rlig1-AMP [2]; [5]): 84.4919; 1-D Distance (Rlig1-AMP [2]; [6]): 1138
CC(C)c1cccc(C(C)C)c1O [Propofol]					1-D Distance (Rlig1-AMP [2]): 1959; Raw data [w Enyzm] (Rlig1-AMP [2]): 8754; Raw data [w/o Enzym] (Rlig1-AMP [2]): 10713
CCC(O)C(=O)[O-].[Na+] (centres unmarked) [Sodium 2-hydroxybutanoate]	8789	10677	1888	73.0807	
O.O=C1C=CC[C@@H]2[C@H]3CCCN4CCC[C@@H](CN12)[C@@H]34 [Sophocarpine (monohydrate)]	8885	10719	1834	71.833	
COc1cc(S(=O)(=O)[O-])ccc1O.[K+] [Sulfogaiacol]					1-D Distance.npi (Rlig1-AMP [2]; [3]): 81.4409; 1-D Distance (Rlig1-AMP [2]; [4]): 1427; Raw data [w Enyzm] (Rlig1-AMP [2]; sheet HTS hits, with enzyme): 8908; Raw data [w/o Enzym] (Rlig1-AMP [2]; sheet HTS hits, without enzyme): 10335
Cn1ncnc2c(=O)n(C)c(=O)nc1-2 [Toxoflavin]	16186	17205	1019		1-D Distance.npi (Rlig1-AMP [2]; HTS hits, normalized value (npi)): 89.8188
C/C=C/c1cc(OC)c(OC)cc1OC [alpha-Asarone]	8891	10653	1762	73.1231	
LL-37, human (TFA)	6495	6396			1-D Distance.npi (Rlig1-AMP [2]; [5]): 104.017; 1-D Distance (Rlig1-AMP [2]; [6]): 99
Lactoferrin (17-41) (acetate) (TKCFQWQRNMRKVRGPPVSCIKRDS; ends and bridges not checked; also: acetate salt; UniProt P02788 36-60, looked up, fragment)	8755	10176	1421	74.4696	
Plicamycin	9254	11211			1-D Distance (Rlig1-AMP [2]; [6]): 1957
Verteporfin	1492	2728	1236	82.5479	
Vitamin B12	5329	5909	580	94.3021	
